Laboratory results as given in ChEMBL document CHEMBL1159000, “Anti-AIDS agents, 4. Tripterifordin, a novel anti-HIV principle from Tripterygium wilfordii: isolation and structural elucidation” (J Nat Prod, 1992).
≈ marks a conversion by molar mass, not a printed value.

Key:
H9 = assay: Inhibition human H9 cell growth assessed as cell density at 15 uM after 3 days by cell count assay; format: cell-based; settings: h9, 72 h
[1] = test system: Human immunodeficiency virus 1; assay: Antiviral activity against HIV1 3B replication in human H9 cells after 1 hr by p24 antigen capture assay; format: functional, organism-based; settings: Human immunodeficiency virus 1, 3B, H9, 1 h

Q: What does the source list for `C[C@@]1(O)C[C@@]23CC[C@H]4[C@@]5(CCC[C@]4(C)C(=O)OC5)[C@@H]2CC[C@H]1C3` [TRIPTERIFORDIN]?
A: Activity (H9): Non-toxic; EC50 [1]: 1 µg/mL (≈ 3.14 µM)
